Laboratory results as given in ChEMBL document CHEMBL5543172, “Novel Isoalantolactone-Based Derivatives as Potent NLRP3 Inflammasome Inhibitors: Design, Synthesis, and Biological Characterization” (J Med Chem, 2024).
Activity calls are given as the source filed them. The calls are words filed in the database; no cut-off is given here.

How the values were obtained:
[1] = Metabolic stability in mouse liver microsomes assessed as half life preincubated for 5 mins followed by NADPH addition and measured upto 60 mins by LC-MS/MS analysis; assay type: ADME, Microsome; conditions: time < 65 min
[2] = molecular target: Voltage-gated inwardly rectifying potassium channel KCNH2 (Homo sapiens, UniProt Q12809); assay: Inhibition of human ERG expressed in HEK293 cells; assay type: toxicity, cell-based
[3] = Genotoxicity in mouse BMDM cells; assay type: toxicity, cell-based
Cytochrome P450 1A2 = Cytochrome P450 1A2 (Homo sapiens, UniProt P05177); assay: Inhibition of CYP1A2 in human liver microsomes using phenacetin as substrate preincubated for 5 mins followed by NADPH addition and measured after 30 to 60 mins by LC-MS/MS analysis; assay type: ADME, Microsome
Cytochrome P450 2B6 = Cytochrome P450 2B6 (Homo sapiens, UniProt P20813); assay: Inhibition of CYP2B6 in human liver microsomes preincubated for 5 mins followed by NADPH addition and measured after 30 to 60 mins by LC-MS/MS analysis; assay type: ADME, Microsome
Cytochrome P450 3A4 = Cytochrome P450 3A4 (Homo sapiens, UniProt P08684); assay: Inhibition of CYP3A4 in human liver microsomes using midazolam as substrate preincubated for 5 mins followed by NADPH addition and measured after 30 to 60 mins by LC-MS/MS analysis; assay type: ADME, Microsome
[4] = molecular target: Alpha-1A adrenergic receptor (Homo sapiens) (UniProt P35348); assay: Inhibition of alpha 1A adrenergic receptor (unknown origin) at 1 uM relative to control
[5] = molecular target: Histamine H1 receptor (Homo sapiens) (UniProt P35367); assay: Inhibition of Histamine H1 receptor (unknown origin) at 1 uM relative to control
[6] = molecular target: Substance-K receptor (Homo sapiens) (UniProt P21452); assay: Inhibition of NK2 receptor (unknown origin) at 1 uM relative to control
[7] = molecular target: Prostaglandin E2 receptor EP2 subtype (Homo sapiens) (UniProt P43116); assay: Inhibition of EP2 receptor (unknown origin) at 1 uM relative to control
[8] = molecular target: Sodium-dependent noradrenaline transporter (Homo sapiens) (UniProt P23975); assay: Inhibition of NET (unknown origin) at 1 uM relative to control
[9] = molecular target: Prostaglandin E2 receptor EP2 subtype (Homo sapiens) (UniProt P43116); assay: Activation of EP2 receptor (unknown origin) at 1 uM relative to control
[10] = molecular target: 5-hydroxytryptamine receptor 7 (Homo sapiens) (UniProt P34969); assay: Activation of 5-HT7 receptor (unknown origin) at 1 uM relative to control
[11] = molecular target: Cannabinoid receptor 2 (Homo sapiens) (UniProt P34972); assay: Activation of CB2 receptor (unknown origin) at 1 uM relative to control
[12] = molecular target: Voltage-dependent N-type calcium channel subunit alpha-1B (Homo sapiens) (UniProt Q00975); assay: Activation of Cav2.2 (unknown origin) at 1 uM relative to control
[13] = molecular target: Sodium-dependent noradrenaline transporter (Homo sapiens) (UniProt P23975); assay: Activation of NET (unknown origin) at 1 uM relative to control
[14] = molecular target: Prostaglandin G/H synthase 2 (Homo sapiens) (UniProt P35354); assay: Activation of COX2 (unknown origin) at 1 uM relative to control
[15] = molecular target: 3',5'-cyclic-AMP phosphodiesterase 4D (Homo sapiens) (UniProt Q08499); assay: Activation of PDE4D2 (unknown origin) at 1 uM relative to control
THP-1 [16] = assay: Cytotoxicity against human THP-1 cells at 0.25 to 2 uM measured after 24 hrs by CCK-8 method; assay type: functional, cell-based; conditions: dose 0.25-2 µM
THP-1 [17] = assay: Cytotoxicity against human THP-1 cells at 4 uM measured after 24 hrs by CCK-8 method; assay type: functional, cell-based
[18] = molecular target: NACHT, LRR and PYD domains-containing protein 3 (Mus musculus) (UniProt Q8R4B8); assay: Inhibition of NLRP3 inflammasome activation in LPS/nigericin induced mouse BMDM cells assessed as reduction in GSDMD-N expression at 0.25 to 1 uM preincubated with LPS for 3 hrs followed by compound addition for 40 mins and further stimulated with nigericin for 40 mins by Western blot analysis; assay type: cell-based; conditions: dose 0.25-1 µM, time 80.0 min
[19] = AUC (0 to t) in male C57BL/6 mouse at 30 mg/kg, ip measured upto 1440 mins by LC-MS/MS analysis; assay type: ADME, organism-based; conditions: in vivo
[20] = MRT (0 to t) in male C57BL/6 mouse at 30 mg/kg, ip measured upto 1440 mins by LC-MS/MS analysis; assay type: ADME, organism-based; conditions: in vivo
[21] = Drug distribution in C57BL/6 mouse colon at 30 mg/kg, ip measured after 0.5 hrs by LC-MS/MS analysis; assay type: ADME, organism-based; conditions: read-out: Drug uptake
[22] = Drug distribution in C57BL/6 mouse colon at 30 mg/kg, ip measured after 8 hrs by LC-MS/MS analysis; assay type: ADME, organism-based; conditions: read-out: Drug uptake
[23] = Drug distribution in C57BL/6 mouse plasma at 30 mg/kg, ip measured after 24 hrs by LC-MS/MS analysis; assay type: ADME, organism-based
THP-1 [24] = assay: Inhibition of pyroptosis in LPS/nigericin induced PMA-differentiated human THP-1 cells assessed as reduction in red fluorescence production preincubated with LPS for 3 hrs followed by compound addition for 40 mins and further stimulated with nigericin for 40 mins by PI staining based inverted microscopy based analysis; assay type: functional, cell-based; conditions: dose 0.25-1 µM, time 80.0 min
BMDM = assay: Inhibition of pyroptosis in LPS/nigericin induced […] cells assessed as reduction in […] at […] preincubated with LPS for 3 hrs followed by compound addition for 40 mins and further stimulated with nigericin for 40 mins by LDH assay; assay type: functional, cell-based; conditions: dose lower 0.25 µM, time 80.0 min
Mus musculus [25] = assay: Anti-colitis activity against DSS-induced ulcerative colitis C57BL/6 mouse model assessed as reduction in colon length shortening at 15 to 30 mg/kg, ip administered daily and measured upto 10 days; assay type: functional, organism-based; conditions: dose 15-30 mg/kg, time <= 10.0 day
Mus musculus [26] = assay: Anti-colitis activity against DSS-induced ulcerative colitis C57BL/6 mouse model assessed as alleviation of reduced crypt count at 15 to 30 mg/kg, ip administered daily and measured after 10 days by H and E staining based analysis; assay type: functional, organism-based; conditions: dose 15-30 mg/kg, time 10.0 day
Mus musculus [27] = assay: Anti-colitis activity against DSS-induced ulcerative colitis C57BL/6 mouse model assessed as alleviation of goblet cell depletion at 15 to 30 mg/kg, ip administered daily and measured after 10 days by H and E staining based analysis; assay type: functional, organism-based; conditions: dose 15-30 mg/kg, time 10.0 day
Mus musculus [28] = assay: Anti-colitis activity against DSS-induced ulcerative colitis C57BL/6 mouse model assessed as alleviation of mucosal damage in colon at 15 to 30 mg/kg, ip administered daily and measured after 10 days by H and E staining based analysis; assay type: functional, organism-based; conditions: dose 15-30 mg/kg, time 10.0 day
Mus musculus [29] = assay: Anti-colitis activity against DSS-induced ulcerative colitis C57BL/6 mouse model assessed as alleviation of grave ulcer formation in colon at 15 to 30 mg/kg, ip administered daily and measured after 10 days by H and E staining based analysis; assay type: functional, organism-based; conditions: dose 15-30 mg/kg, time 10.0 day
Mus musculus [30] = assay: Anti-colitis activity against DSS-induced ulcerative colitis C57BL/6 mouse model assessed as reduction in TNF-alpha level at 15 to 30 mg/kg, ip by ELISA method; assay type: functional, organism-based; conditions: dose 15-30 mg/kg
Mus musculus [31] = assay: Anti-colitis activity against DSS-induced ulcerative colitis C57BL/6 mouse model assessed as suppression of caspase-1 activation at 15 to 30 mg/kg, ip by Western blot analysis; assay type: functional, organism-based; conditions: dose 15-30 mg/kg

Sodium-dependent noradrenaline transporter (Homo sapiens), sequence (P23975 whole entry): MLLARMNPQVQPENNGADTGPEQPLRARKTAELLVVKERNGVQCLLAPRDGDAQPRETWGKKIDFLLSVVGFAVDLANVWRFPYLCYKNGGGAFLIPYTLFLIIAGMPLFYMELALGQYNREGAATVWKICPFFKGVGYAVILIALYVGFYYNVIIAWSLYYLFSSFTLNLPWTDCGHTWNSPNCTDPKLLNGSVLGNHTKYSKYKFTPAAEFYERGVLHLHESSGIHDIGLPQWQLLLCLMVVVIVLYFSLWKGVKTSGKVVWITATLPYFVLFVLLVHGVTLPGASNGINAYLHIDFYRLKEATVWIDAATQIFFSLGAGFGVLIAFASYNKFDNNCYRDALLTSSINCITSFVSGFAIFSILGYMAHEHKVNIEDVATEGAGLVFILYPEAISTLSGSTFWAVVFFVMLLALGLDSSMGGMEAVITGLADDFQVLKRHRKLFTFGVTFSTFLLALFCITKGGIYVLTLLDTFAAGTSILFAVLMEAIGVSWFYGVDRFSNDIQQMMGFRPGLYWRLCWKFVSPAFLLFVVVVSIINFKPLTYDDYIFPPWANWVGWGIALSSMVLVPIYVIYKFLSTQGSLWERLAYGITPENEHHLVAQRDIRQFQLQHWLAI
Prostaglandin E2 receptor EP2 subtype (Homo sapiens), sequence (P43116 whole entry): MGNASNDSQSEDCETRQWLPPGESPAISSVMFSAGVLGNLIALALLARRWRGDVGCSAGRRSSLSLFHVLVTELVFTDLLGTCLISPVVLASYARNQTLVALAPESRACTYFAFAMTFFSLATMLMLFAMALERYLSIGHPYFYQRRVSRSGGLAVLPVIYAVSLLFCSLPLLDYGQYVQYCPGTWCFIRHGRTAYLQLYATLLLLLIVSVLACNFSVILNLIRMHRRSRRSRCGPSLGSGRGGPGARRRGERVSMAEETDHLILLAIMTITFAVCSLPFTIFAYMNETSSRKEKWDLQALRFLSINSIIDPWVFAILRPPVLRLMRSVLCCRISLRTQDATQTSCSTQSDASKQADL
Alpha-1A adrenergic receptor (Homo sapiens), sequence (P35348 whole entry): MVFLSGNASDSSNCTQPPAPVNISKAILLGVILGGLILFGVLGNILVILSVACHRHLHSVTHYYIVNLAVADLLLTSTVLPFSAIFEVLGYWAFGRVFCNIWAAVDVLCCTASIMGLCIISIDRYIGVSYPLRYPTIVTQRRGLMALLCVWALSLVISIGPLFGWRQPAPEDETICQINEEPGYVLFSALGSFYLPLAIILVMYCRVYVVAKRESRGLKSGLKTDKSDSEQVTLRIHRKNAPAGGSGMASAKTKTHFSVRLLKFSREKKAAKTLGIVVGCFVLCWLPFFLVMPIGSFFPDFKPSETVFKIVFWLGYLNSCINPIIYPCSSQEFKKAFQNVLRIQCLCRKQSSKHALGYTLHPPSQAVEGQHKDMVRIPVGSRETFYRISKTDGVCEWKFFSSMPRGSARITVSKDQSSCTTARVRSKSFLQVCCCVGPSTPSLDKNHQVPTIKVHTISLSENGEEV
Substance-K receptor (Homo sapiens), sequence (P21452 whole entry): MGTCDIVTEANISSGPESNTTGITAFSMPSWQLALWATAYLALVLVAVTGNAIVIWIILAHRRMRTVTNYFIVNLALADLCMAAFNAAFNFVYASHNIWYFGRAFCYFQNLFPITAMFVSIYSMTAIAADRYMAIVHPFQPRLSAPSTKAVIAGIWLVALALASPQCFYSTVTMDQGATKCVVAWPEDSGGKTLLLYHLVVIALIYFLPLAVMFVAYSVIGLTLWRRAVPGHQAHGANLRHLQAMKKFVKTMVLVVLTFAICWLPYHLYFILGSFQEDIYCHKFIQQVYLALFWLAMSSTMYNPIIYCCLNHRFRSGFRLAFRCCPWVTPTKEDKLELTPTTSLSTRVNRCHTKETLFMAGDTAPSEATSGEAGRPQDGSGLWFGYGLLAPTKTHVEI
Voltage-gated inwardly rectifying potassium channel KCNH2, sequence (Q12809 whole entry): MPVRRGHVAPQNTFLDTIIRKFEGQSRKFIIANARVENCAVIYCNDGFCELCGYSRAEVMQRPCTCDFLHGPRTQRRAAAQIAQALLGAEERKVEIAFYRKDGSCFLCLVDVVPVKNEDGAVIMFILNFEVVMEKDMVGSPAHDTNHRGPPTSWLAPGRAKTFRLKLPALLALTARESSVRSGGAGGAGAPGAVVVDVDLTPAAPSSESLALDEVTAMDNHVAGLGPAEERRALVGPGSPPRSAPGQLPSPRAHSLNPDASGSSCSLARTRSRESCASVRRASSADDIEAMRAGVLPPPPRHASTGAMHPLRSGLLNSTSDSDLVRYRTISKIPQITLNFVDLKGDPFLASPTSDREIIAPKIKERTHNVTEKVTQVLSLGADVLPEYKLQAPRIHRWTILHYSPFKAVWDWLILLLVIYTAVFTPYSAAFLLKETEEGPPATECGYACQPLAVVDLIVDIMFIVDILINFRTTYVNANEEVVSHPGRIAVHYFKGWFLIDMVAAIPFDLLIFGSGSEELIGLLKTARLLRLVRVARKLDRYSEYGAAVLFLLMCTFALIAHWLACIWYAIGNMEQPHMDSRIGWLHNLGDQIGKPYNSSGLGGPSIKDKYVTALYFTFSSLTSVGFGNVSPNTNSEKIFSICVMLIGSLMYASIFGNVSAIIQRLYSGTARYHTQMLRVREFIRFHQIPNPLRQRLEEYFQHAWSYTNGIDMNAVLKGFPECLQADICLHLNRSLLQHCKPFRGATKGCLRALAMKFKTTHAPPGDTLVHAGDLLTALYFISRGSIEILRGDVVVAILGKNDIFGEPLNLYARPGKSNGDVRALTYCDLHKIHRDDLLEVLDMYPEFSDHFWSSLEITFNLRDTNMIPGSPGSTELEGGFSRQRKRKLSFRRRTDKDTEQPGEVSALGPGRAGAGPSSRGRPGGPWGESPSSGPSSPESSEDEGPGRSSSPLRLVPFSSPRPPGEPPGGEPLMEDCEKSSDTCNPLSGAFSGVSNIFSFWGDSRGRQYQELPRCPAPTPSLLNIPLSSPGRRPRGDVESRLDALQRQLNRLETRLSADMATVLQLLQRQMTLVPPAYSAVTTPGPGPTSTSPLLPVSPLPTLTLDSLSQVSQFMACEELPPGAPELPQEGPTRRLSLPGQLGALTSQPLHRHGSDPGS
3',5'-cyclic-AMP phosphodiesterase 4D (Homo sapiens), sequence (Q08499 whole entry): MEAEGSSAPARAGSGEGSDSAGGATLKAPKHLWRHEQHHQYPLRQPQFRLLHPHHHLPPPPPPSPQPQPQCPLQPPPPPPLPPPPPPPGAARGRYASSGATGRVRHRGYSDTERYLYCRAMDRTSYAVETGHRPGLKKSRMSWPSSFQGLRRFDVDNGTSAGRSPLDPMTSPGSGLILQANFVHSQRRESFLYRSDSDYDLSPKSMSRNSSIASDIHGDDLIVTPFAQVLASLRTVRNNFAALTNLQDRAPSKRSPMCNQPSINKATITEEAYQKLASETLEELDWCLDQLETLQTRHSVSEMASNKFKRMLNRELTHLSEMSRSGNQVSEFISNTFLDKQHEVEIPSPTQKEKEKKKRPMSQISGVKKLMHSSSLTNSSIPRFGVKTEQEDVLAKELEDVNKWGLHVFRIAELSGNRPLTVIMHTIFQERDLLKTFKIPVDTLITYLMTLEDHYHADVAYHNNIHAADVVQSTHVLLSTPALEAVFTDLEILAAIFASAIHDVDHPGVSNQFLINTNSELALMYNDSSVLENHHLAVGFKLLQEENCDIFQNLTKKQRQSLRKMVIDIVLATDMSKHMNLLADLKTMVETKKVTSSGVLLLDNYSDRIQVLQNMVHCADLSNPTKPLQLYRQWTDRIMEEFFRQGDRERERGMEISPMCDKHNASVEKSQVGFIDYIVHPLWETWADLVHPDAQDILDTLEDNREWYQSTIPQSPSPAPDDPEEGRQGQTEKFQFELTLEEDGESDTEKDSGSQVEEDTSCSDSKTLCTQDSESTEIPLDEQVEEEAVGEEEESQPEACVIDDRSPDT
Cytochrome P450 2B6, sequence (P20813 whole entry): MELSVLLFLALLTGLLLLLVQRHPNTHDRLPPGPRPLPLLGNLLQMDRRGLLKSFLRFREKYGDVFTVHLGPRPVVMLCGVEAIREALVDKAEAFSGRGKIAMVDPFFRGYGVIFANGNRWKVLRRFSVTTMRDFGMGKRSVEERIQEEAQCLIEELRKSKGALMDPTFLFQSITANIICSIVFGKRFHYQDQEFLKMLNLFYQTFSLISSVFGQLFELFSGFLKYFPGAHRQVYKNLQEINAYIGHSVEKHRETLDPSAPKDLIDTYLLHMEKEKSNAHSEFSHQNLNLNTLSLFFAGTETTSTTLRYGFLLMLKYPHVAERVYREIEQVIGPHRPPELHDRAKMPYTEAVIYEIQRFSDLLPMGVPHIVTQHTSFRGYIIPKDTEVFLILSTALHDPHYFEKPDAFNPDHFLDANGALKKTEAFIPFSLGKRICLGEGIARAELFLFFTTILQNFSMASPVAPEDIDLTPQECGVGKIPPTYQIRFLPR
Cytochrome P450 1A2, sequence (P05177 whole entry): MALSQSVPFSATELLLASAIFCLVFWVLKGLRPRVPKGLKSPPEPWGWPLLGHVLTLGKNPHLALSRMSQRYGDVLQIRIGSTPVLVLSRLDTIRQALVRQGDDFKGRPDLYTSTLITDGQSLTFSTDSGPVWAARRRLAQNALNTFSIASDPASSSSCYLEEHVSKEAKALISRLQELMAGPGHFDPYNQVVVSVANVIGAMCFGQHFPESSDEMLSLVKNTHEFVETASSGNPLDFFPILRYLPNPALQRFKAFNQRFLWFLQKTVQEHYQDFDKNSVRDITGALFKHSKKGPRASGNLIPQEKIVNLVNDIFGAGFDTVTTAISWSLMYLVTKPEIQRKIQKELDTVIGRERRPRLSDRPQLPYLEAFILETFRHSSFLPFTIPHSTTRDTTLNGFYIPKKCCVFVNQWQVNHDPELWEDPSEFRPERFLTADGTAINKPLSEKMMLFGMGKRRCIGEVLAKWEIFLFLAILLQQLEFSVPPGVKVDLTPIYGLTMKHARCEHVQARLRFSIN

C=C1C(=O)O[C@@H]2C[C@@]3(C)CC[C@@H](OC(=O)c4cnc(Cl)cc4Cl)C(=C)[C@@H]3C[C@H]12
half-life [1]: 1.09 h | IC50 [2]: 10.6 µM | Activity [3]: Non-Toxic | IC50 (Cytochrome P450 1A2): > 100 µM | IC50 (Cytochrome P450 2B6): > 100 µM | IC50 (Cytochrome P450 3A4): > 100 µM | inhibition [4]: < 50% | inhibition [5]: < 50% | inhibition [6]: < 50% | inhibition [7]: < 50% | inhibition [8]: < 50% | Activity [9]: < 50% | Activity [10]: < 50% | Activity [11]: < 50% | Activity [12]: < 50% | Activity [13]: < 50% | Activity [14]: < 50% | Activity [15]: < 50% | Activity (THP-1 [16]): inactive | Activity (THP-1 [17]): Active | inhibition [18]: Active | AUC(0-t) at 24 h [19]: 16.8 ng·h/mL | MRT last at 24 h [20]: 11 h | concentration at 0.5 h [21]: 12900 ng/g | concentration at 8 h [22]: 80.2 ng/g | concentration at 24 h [23]: 1.65 ng/mL | inhibition (THP-1 [24]): Active | inhibition (BMDM): Active | Activity (Mus musculus [25]): Active | Activity (Mus musculus [26]): Active | Activity (Mus musculus [27]): Active | Activity (Mus musculus [28]): Active | Activity (Mus musculus [29]): Active | Activity (Mus musculus [30]): Active | Activity (Mus musculus [31]): Active
